These results are taken from patent US9278962B2 (Cytokinetics, Inc., priority 2011, dated 2016).

One assay has as its system rabbit skeletal myofibrils (approximately 90% fast fibers). Put plainly: Activation of fast skeletal myofibrils (PUMA coupled-enzyme ATPase assay, AC1.4). In kind it is biochemical. The conditions noted are these: Table 2; concentration at which the compound increased enzymatic activity by 40%; calcium at pCa25.
As to `CN(C)CCc1nsc(NCC(C)(C)c2ccc(F)cc2)n1` [[2-(5-{[2-(4-fluorophenyl)-2-methylpropyl]amino}(1,2,4-thiadiazol-3-yl))ethyl]dimethylamine], the “Mean AC1.4” value is recorded as “D (D=>20 uM)”.
As for `CC(C)(CNc1nc(-c2ccccc2CO)ns1)c1ccc(F)cc1` [[2-(5-{[2-(4-fluorophenyl)-2-methylpropyl]amino}-1,2,4-thiadiazol-3-yl)phenyl]methan-1-ol], the “Mean AC1.4” value was “B (B=1-10 uM)”.
Consider `CN(C)CCN(C)c1nsc(NCC(C)(C)c2ccc(F)cc2)n1` [[2-(dimethylamino)ethyl](5-{[2-(4-fluorophenyl)-2-methylpropyl]amino}(1,2,4-thiadiazol-3-yl))methylamine], for which the “Mean AC1.4” value is “D (D=>20 uM)”.
Still for that read-out and setting: with `COc1ccc(-c2nsc(NCC(C)(C)c3ccc(F)cc3)n2)c(Cl)c1` [[3-(2-chloro-4-methoxyphenyl)(1,2,4-thiadiazol-5-yl)][2-(4-fluorophenyl)-2-methylpropyl]amine] the entry was “B (B=1-10 uM)”; with `CC(C)(CNc1nc(-c2ccc3[nH]nc(N)c3c2)ns1)c1ccc(F)cc1` [[3-(3-amino(1H-indazol-5-yl))(1,2,4-thiadiazol-5-yl)][2-(4-fluorophenyl)-2-methylpropyl]amine], “A (A=<1 uM)”.
With `CC(C)(CNc1nc(-c2ccc3c(N)n[nH]c3c2)ns1)c1ccc(F)cc1` [[3-(3-amino(1H-indazol-6-yl))(1,2,4-thiadiazol-5-yl)][2-(4-fluorophenyl)-2-methylpropyl]amine], the “Mean AC1.4” value is recorded as “A (A=<1 uM)”.
Same read-out and setting: to `CC(C)(CNc1nc(-c2ccc(F)cc2)ns1)c1ccc(F)cc1` [[3-(4-fluorophenyl)(1,2,4-thiadiazol-5-yl)][2-(4-fluorophenyl)-2-methylpropyl]amine] belongs “B (B=1-10 uM)”; to `CN(C)C(=O)c1cccc(-c2nsc(NCC(C)(C)c3ccc(F)cc3)n2)c1` [[3-(5-{[2-(4-fluorophenyl)-2-methylpropyl]amino}(1,2,4-thiadiazol-3-yl))phenyl]-N,N-dimethylcarboxamide], “B (B=1-10 uM)”; to `CNC(=O)c1cccc(-c2nsc(NCC(C)(C)c3ccc(F)cc3)n2)c1` [[3-(5-{[2-(4-fluorophenyl)-2-methylpropyl]amino}(1,2,4-thiadiazol-3-yl))phenyl]-N-methylcarboxamide], “A (A=<1 uM)”.
The same measure, in the same setting: to `CC(C)(CNc1nc(CCCNS(C)(=O)=O)ns1)c1ccc(F)cc1` [[3-(5-{[2-(4-fluorophenyl)-2-methylpropyl]amino}(1,2,4-thiadiazol-3-yl))propyl](methylsulfonyl)amine] belongs “B (B=1-10 uM)”.
The same measure, in the same setting: with `CC(C)(CNc1nc(-c2cccc(CO)c2)ns1)c1ccc(F)cc1` [[3-(5-{[2-(4-fluorophenyl)-2-methylpropyl]amino}-1,2,4-thiadiazol-3-yl)phenyl]methan-1-ol] the entry was “B (B=1-10 uM)”; with `COC/C=C/c1nsc(NCC(C)(C)c2ccc(F)cc2)n1` [[3-((1E)-3-methoxyprop-1-enyl)(1,2,4-thiadiazol-5-yl)][2-(4-fluorophenyl)-2-methylpropyl]amine], “B (B=1-10 uM)”; with `CNC(=O)c1ccc(-c2nsc(NCC(C)(C)c3ccc(F)cc3)n2)cc1` [[4-(5-{[2-(4-fluorophenyl)-2-methylpropyl]amino}(1,2,4-thiadiazol-3-yl))phenyl]-N-methylcarboxamide], “A (A=<1 uM)”.
In the case of `CC(C)(CNc1nc(-c2ccc(CO)cc2)ns1)c1ccc(F)cc1` [[4-(5-{[2-(4-fluorophenyl)-2-methylpropyl]amino}-1,2,4-thiadiazol-3-yl)phenyl]methan-1-ol], the “Mean AC1.4” value was “B (B=1-10 uM)”.
For `CNC(=O)c1ccc(-c2nsc(NCC(C)(C)c3ccc(F)cc3)n2)cn1` [[5-(5-{[2-(4-fluorophenyl)-2-methylpropyl]amino}(1,2,4-thiadiazol-3-yl))(2-pyridyl)]-N-methylcarboxamide], the “Mean AC1.4” value is recorded as “B (B=1-10 uM)”.
For the compound `COc1cccc(Cc2nsc(NC[C@H](C)c3ccc(F)cc3)n2)c1` [[(2R)-2-(4-fluorophenyl)propyl]{3-[(3-methoxyphenyl)methyl](1,2,4-thiadiazol-5-yl)}amine], the “Mean AC1.4” value was “B (B=1-10 uM)”.
Same read-out and setting: with `C[C@H](CNc1nc(-c2cn[nH]c2)ns1)c1ccc(F)cc1` [[(2S)-2-(4-fluorophenyl)propyl](3-pyrazol-4-yl(1,2,4-thiadiazol-5-yl))amine] the entry was “B (B=1-10 uM)”.
Consider `COc1cccc(Cc2nsc(NC[C@@H](C)c3ccc(F)cc3)n2)c1` [[(2S)-2-(4-fluorophenyl)propyl]{3-[(3-methoxyphenyl)methyl](1,2,4-thiadiazol-5-yl)}amine], for which the “Mean AC1.4” value was “A (A=<1 uM)”.
Take `COc1cccc(Cc2nsc(NCc3ccc(Cl)c(Cl)c3)n2)c1` [[(3,4-dichlorophenyl)methyl]{3-[(3-methoxyphenyl)methyl](1,2,4-thiadiazol-5-yl)}amine]: the “Mean AC1.4” value is reported as “D (D=>20 uM)”.
Still for that read-out and setting: to `Fc1ccc(Cc2nsc(NCc3ccc(Cl)c(Cl)c3)n2)cc1` [[(3,4-dichlorophenyl)methyl]{3-[(4-fluorophenyl)methyl])1,2,4-thiadiazol-5-yl)}amine] belongs “D (D=>20 uM)”; to `COc1cccc(Cc2nsc(NCc3ccc(Cl)cc3)n2)c1` [[(4-chlorophenyl)methyl]{3-[(3-methoxyphenyl)methyl](1,2,4-thiadiazol-5-yl)}amine], “D (D=>20 uM)”; to `Clc1ccc(CNc2nc(Cc3ccc(Cl)cc3)ns2)cc1` [[(4-chlorophenyl)methyl]{3-[(4-chlorophenyl)methyl](1,2,4-thiadiazol-5-yl)}amine], “D (D=>20 uM)”.
On the same count and under the same terms, to `Fc1ccc(Cc2nsc(NCc3ccc(Cl)cc3)n2)cc1` [[(4-chlorophenyl)methyl]{3-[(4-fluorophenyl)methyl])1,2,4-thiadiazol-5-yl)}amine] belongs “D (D=>20 uM)”.
Same read-out and setting: with `CN(C)Cc1nsc(NCC(C)(C)c2ccc(F)cc2)n1` [[(5-{[2-(4-fluorophenyl)-2-methylpropyl]amino}(1,2,4-thiadiazol-3-yl))methyl]dimethylamine] the entry was “D (D=>20 uM)”; with `CNCc1nsc(NCC(C)(C)c2ccc(F)cc2)n1` [[(5-{[2-(4-fluorophenyl)-2-methylpropyl]amino}(1,2,4-thiadiazol-3-yl))methyl]methylamine], “D (D=>20 uM)”.
Turning to `CCOC(=O)CCc1nsc(NCC(C)(C)c2ccc(F)cc2)n1` [ethyl 3-(5-{[2-(4-fluorophenyl)-2-methylpropyl]amino}-1,2,4-thiadiazol-3-yl)propanoate], the “Mean AC1.4” value was “B (B=1-10 uM)”.
Still for that read-out and setting: to `CCOC(=O)/C=C/c1nsc(NCC(C)(C)c2ccc(F)cc2)n1` [ethyl (2E)-3-(5-{[2-(4-fluorophenyl)-2-methylpropyl]amino}(1,2,4-thiadiazol-3-yl))prop-2-enoate] belongs “D (D=>20 uM)”; to `COC(=O)CNc1nc(-c2cccc(C#N)c2)ns1` [methyl 2-{[3-(3-cyanophenyl)-1,2,4-thiadiazol-5-yl]amino}acetate], “D (D=>20 uM)”.

Still in this assay, the particulars now being: Table 4; concentration at which the compound increased enzymatic activity by 40%; calcium at pCa25.
On to `CCOC(=O)c1ccc2nc(NCC(C)(C)c3ccc(F)cc3)sc2c1` [ethyl 2-(2-(4-fluorophenyl)-2-methylpropylamino)benzo[d] thiazole-6-carboxylate], for which the “Mean AC1.4” value is listed as “B (B=1-10 uM)”.
